Results as given in patent US20250084074A1, “SUBSTITUTED HETEROCYCLES AS HSET INHIBITORS” (MERCK PATENT GMBH, priority 2022, published 2025).

These compounds were tested against HSET full length protein (Homo sapiens (Human), UniProt Q9BW19) (assay: HSET ADP-Glo Assay S - 3 μM ATP). Details: 5 nM HSET, 70 μg/mL microtubule, 80 min at rt, read-out: COMBINED HSET ADP GLO IC50.
Format: biochemical
Method in brief: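 ADP-Glo luminescence read-out: ATPase reaction at 3 μM ATP, 80 min at room temperature, after a 10 min compound preincubation. Enzyme was full-length human HSET at 5 nM, stimulated by 70 μg/mL paclitaxel-stabilised bovine microtubules in HEPES pH 6.8 buffer with MgCl2, EGTA, Triton X-100 and DTT.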

HSET full length protein, sequence (Q9BW19 whole entry): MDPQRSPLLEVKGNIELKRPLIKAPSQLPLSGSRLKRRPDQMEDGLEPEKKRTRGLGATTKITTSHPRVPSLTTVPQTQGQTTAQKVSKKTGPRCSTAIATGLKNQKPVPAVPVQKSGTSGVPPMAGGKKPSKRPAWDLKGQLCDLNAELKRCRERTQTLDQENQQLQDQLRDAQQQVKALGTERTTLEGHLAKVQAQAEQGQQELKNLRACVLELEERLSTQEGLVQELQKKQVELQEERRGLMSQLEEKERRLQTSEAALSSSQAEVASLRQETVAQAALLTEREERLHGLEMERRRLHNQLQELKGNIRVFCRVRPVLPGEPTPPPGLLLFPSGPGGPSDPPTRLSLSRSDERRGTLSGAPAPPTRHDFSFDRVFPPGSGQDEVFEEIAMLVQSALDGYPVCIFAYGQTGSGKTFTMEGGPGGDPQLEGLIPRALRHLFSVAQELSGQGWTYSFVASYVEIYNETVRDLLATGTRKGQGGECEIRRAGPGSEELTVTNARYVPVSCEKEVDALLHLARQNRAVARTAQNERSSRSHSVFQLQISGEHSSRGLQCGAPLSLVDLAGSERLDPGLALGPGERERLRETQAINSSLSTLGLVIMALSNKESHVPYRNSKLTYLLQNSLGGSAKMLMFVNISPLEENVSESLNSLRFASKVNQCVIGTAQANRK

| IC50 [µM] | SMILES |
| --- | --- |
| 0.044 | Cc1nc(-c2ccc3ccnc(NC4CN(C(=O)Nc5nc(C)c(C(C)(C)C)s5)C4)c3c2)no1 [Example 232, N-(5-(tert-butyl)-4-methylthiazol-2-yl)-3-((7-(5-methyl-1,2,4-oxadiazol-3-yl)isoquinolin-1-yl)amino)azetidine-1-carboxamide] |
| 0.03 | CCCOC(=O)c1sc(N(C)C(=O)CCNC(=O)c2cc(Cl)cc(-c3noc(C)n3)c2)nc1C [Example 233, Propyl 2-(3-(3-chloro-5-(5-methyl-1,2,4-oxadiazol-3-yl)benzamido)-N-methylpropanamido)-4-methylthiazole-5-carboxylate] |
| 2.1 | CCCOC(=O)c1sc(NC(=O)[C@@H]2C[C@H](NC(=O)c3cccc(-c4noc(C)n4)c3)CN2C)nc1C [Example 234, Propyl 4-methyl-2-((2S,4S)-1-methyl-4-(3-(5-methyl-1,2,4-oxadiazol-3-yl)benzamido)pyrrolidine-2-carboxamido)thiazole-5-carboxylate] |
| 6.78 | CCCOC(=O)c1sc(NC(=O)[C@H]2C[C@@H](NC(=O)c3cccc(-c4noc(C)n4)c3)CN2C)nc1C [Example 235, Propyl 4-methyl-2-((2R,4R)-1-methyl-4-(3-(5-methyl-1,2,4-oxadiazol-3-yl)benzamido)pyrrolidine-2-carboxamido)thiazole-5-carboxylate] |
| 2.84 | Cc1nc(-c2ccc3ccnc(N[C@H]4C[C@@H](C(=O)Nc5nc(C)c(C(C)(C)C)s5)N(C)C4)c3c2)no1 [Example 236, (2S,4S)-N-(5-(tert-butyl)-4-methylthiazol-2-yl)-1-methyl-4-((7-(5-methyl-1,2,4-oxadiazol-3-yl)isoquinolin-1-yl)amino)pyrrolidine-2-carboxamide] |
| 0.1 | CCCOC(=O)c1sc(NC(=O)[C@@H]2C[C@H](Nc3nccc4ccc(-c5noc(C)n5)cc34)CN2C)nc1C [Example 237, Propyl 4-methyl-2-((2S,4S)-1-methyl-4-((7-(5-methyl-1,2,4-oxadiazol-3-yl)isoquinolin-1-yl)amino)pyrrolidine-2-carboxamido)thiazole-5-carboxylate] |
| 6.74 | CCCCCc1cc(NC(=O)[C@@H]2C[C@H](Nc3nccc4ccc(-c5noc(C)n5)cc34)CN2C)nn1C [Example 238, (2S,4S)-1-methyl-4-((7-(5-methyl-1,2,4-oxadiazol-3-yl)isoquinolin-1-yl)amino)-N-(1-methyl-5-pentyl-1 H-pyrazol-3-yl)pyrrolidine-2-carboxamide] |
| 0.119 | CCCOC(=O)c1sc(NC(=O)[C@@H]2C[C@H](Nc3nccc4ccc(-c5noc(C)n5)cc34)CN2)nc1C [Example 239, Propyl 4-methyl-2-((2S,4S)-4-((7-(5-methyl-1,2,4-oxadiazol-3-yl)isoquinolin-1-yl)amino)pyrrolidine-2-carboxamido)thiazole-5-carboxylate] |
| 0.098 | CCCOC(=O)c1sc(C(=O)N2CC[C@H](NC(=O)c3cccc(-c4noc(C)n4)c3)C2)nc1C [Example 240, Propyl (S)-4-methyl-2-(3-(3-(5-methyl-1,2,4-oxadiazol-3-yl)benzamido)pyrrolidine-1-carbonyl)thiazole-5-carboxylate] |
| 0.03 | CCCOC(=O)c1sc(C(=O)N2CC[C@H](NC(=O)c3cccc(-c4nnn(C)n4)c3)C2)nc1C [Example 242, Propyl 4-methyl-2-[(3S)-3-[[3-(2-methyltetrazol-5-yl)benzoyl]amino]pyrrolidine-1-carbonyl]thiazole-5-carboxylate] |
| 0.011 | CCCOC(=O)c1sc(C(=O)N2CC[C@H](Nc3nccc4ccc(-c5noc(C)n5)cc34)C2)nc1C [Example 243, Propyl (S)-4-methyl-2-(3-((7-(5-methyl-1,2,4-oxadiazol-3-yl)isoquinolin-1-yl)amino)pyrrolidine-1-carbonyl)thiazole-5-carboxylate] |
| 0.608 | CCCOC(=O)c1sc(C(=O)N2CC[C@@H](Nc3nccc4ccc(-c5noc(C)n5)cc34)C2)nc1C [Example 244, Propyl (R)-4-methyl-2-(3-((7-(5-methyl-1,2,4-oxadiazol-3-yl)isoquinolin-1-yl)amino)pyrrolidine-1-carbonyl)thiazole-5-carboxylate] |
| 7.47 | CCCOC(=O)c1cc(C(=O)N2CC[C@H](Nc3nccc4ccc(-c5noc(C)n5)cc34)C2)nn1C [Example 245, Propyl (S)-1-methyl-3-(3-((7-(5-methyl-1,2,4-oxadiazol-3-yl)isoquinolin-1-yl)amino)pyrrolidine-1-carbonyl)-1 H-pyrazole-5-carboxylate] |
| 1.74 | Cc1nc(-c2ccc3ccnc(N[C@H]4CCN(C(=O)c5nc(C)c(C(C)(C)C)s5)C4)c3c2)no1 [Example 246, (S)-(5-(tert-butyl)-4-methylthiazol-2-yl)(3-((7-(5-methyl-1,2,4-oxadiazol-3-yl)isoquinolin-1-yl)amino)pyrrolidin-1-yl)methanone] |
| 13.6 | Cc1nc(-c2ccc3ccnc(N[C@H]4CCN(C(=O)c5cc(C6CC6)n(C)n5)C4)c3c2)no1 [Example 247, (S)-(5-cyclopropyl-1-methyl-1 H-pyrazol-3-yl)(3-((7-(5-methyl-1,2,4-oxadiazol-3-yl)isoquinolin-1-yl)amino)pyrrolidin-1-yl)methanone] |
| 4.14 | Cc1nc(-c2ccc3ccnc(N[C@H]4CCN(C(=O)c5cc(-c6ccccc6)n(C)n5)C4)c3c2)no1 [Example 248, (S)-(3-((7-(5-methyl-1,2,4-oxadiazol-3-yl)isoquinolin-1-yl)amino)pyrrolidin-1-yl)(1-methyl-5-phenyl-1 H-pyrazol-3-yl)methanone] |
| 14.5 | Cc1nc(-c2ccc3ccnc(N[C@H]4CCN(C(=O)c5cc(C(C)C)n(C)n5)C4)c3c2)no1 [Example 249, (S)-(5-isopropyl-1-methyl-1 H-pyrazol-3-yl)(3-((7-(5-methyl-1,2,4-oxadiazol-3-yl)isoquinolin-1-yl)amino)pyrrolidin-1-yl)methanone] |
| 9.46 | Cc1nc(-c2ccc3ccnc(N[C@H]4CCN(C(=O)c5cnc[nH]5)C4)c3c2)no1 [Example 250, (S)-(1 H-imidazol-5-yl)(3-((7-(5-methyl-1,2,4-oxadiazol-3-yl)isoquinolin-1-yl)amino)pyrrolidin-1-yl)methanone] |
| 5.62 | Cc1cc(C(=O)N2CC[C@H](Nc3nccc4ccc(-c5noc(C)n5)cc34)C2)no1 [Example 251, (5-Methylisoxazol-3-yl)-[(3S)-3-[[7-(5-methyl-1,2,4-oxadiazol-3-yl)-1-isoquinolyl]amino]pyrrolidin-1-yl]methanone] |
| 16.4 | Cc1nc(-c2ccc3ccnc(N[C@H]4CCN(C(=O)c5cnn(C(C)(C)C)c5)C4)c3c2)no1 [Example 252, (1-tert-Butylpyrazol-4-yl)-[(3S)-3-[[7-(5-methyl-1,2,4-oxadiazol-3-yl)-1-isoquinolyl]amino]pyrrolidin-1-yl]methanone] |
| 3.41 | Cc1nc(-c2ccc3ccnc(N[C@H]4CCN(C(=O)c5cc(C(C)C)[nH]n5)C4)c3c2)no1 [Example 253, (S)-(5-isopropyl-1 H-pyrazol-3-yl)(3-((7-(5-methyl-1,2,4-oxadiazol-3-yl)isoquinolin-1-yl)amino)pyrrolidin-1-yl)methanone] |
| 6.1 | Cc1nc(-c2ccc3ccnc(N[C@H]4CCN(C(=O)c5cc(C(C)(C)C)[nH]n5)C4)c3c2)no1 [Example 254, (S)-(5-(tert-butyl)-1 H-pyrazol-3-yl)(3-((7-(5-methyl-1,2,4-oxadiazol-3-yl)isoquinolin-1-yl)amino)pyrrolidin-1-yl)methanone] |
